For 88 compounds, melting point results are on record in a melting point compilation (Tetko et al.; mined from patent text by program, amines drawn as free bases though some values may be those of a salt).

The term melting point denotes the temperature, or range, at which the solid turns liquid.

In the case of `CCCN1C(=O)N2CCN=C2c2c1nc(C1CCCC1)n2C`, the melting point was 246 to 247 °C.

Compound `CCCc1nc2ccc(C(=O)c3ccccc3)cc2n1Cc1ccc(C(=O)O)cc1` displayed a melting point of 295 to 296 °C.

`O=C(O)COc1ccc(CCC(=O)c2ccc(-c3ccc(C(F)(F)F)cc3)s2)c(Cl)c1Cl` showed a melting point of 217 to 219 °C.

As to `Cc1noc(C)c1COCCn1cnc2c(N)nc3ccccc3c21`, the melting point lay within 213 to 215 °C.

As to `CN1CCN(CCCNC(=S)NC2CCCCC2)CC1`, the melting point lay in the range of 109 to 111 °C.

In turn, `CON=C(CCC(=O)O)c1ccc(-c2ccc(Cl)cc2)cc1` gave a melting point of 183 to 186 °C.

As to `CC(=O)Nc1ccc(C=C2c3ccccc3CCc3ccccc32)cc1`, the melting point is 135 °C.

In turn, `OCc1ccc(-c2c3ccccc3nn2Cc2ccccc2)cc1` gave a melting point of 148 to 149 °C.

Regarding `CCOC(=O)C(CC(=O)c1cccc(F)c1)(NC(C)=O)C(=O)OCC`, the melting point fell in the range of 121 to 123 °C.

`O=C(Nc1cccnc1)N1CCC(=C2c3ccc(Cl)cc3C=Cc3cccnc32)CC1` showed a melting point of 95.9 to 97.6 °C.

`O=[N+]([O-])c1ccc(Oc2ccccc2)c(Cl)c1Oc1ccccc1`: the melting point fell in the range of 106 to 107 °C.

Compound `COc1cc(OC)c2c(=O)[nH]c(-c3ccc(N(CCO)CCO)cc3)nc2n1` returned a melting point of 277 to 279 °C.

For the compound `O=c1[nH]cc(-c2cccnc2)nc1Cc1ccccc1`, the melting point was 188 to 190 °C.

`CCCCOc1cc2c(cc1C)C(=O)CC2(C)C` gave a melting point of 59 °C.

In turn, `C[C@@H](CO)CCC[C@@H](C)[C@H]1C(=O)C[C@H]2[C@@H]3CC=C4C[C@@H](O)CC[C@]4(C)[C@H]3CC[C@]12C` came in with a melting point of 167 to 169 °C.

In the case of `CS(=O)(=O)Nc1cccc(Nc2nc(NCc3ncc[nH]3)c3nc[nH]c3n2)c1`, the melting point was in the range of 216 to 220 °C.

Compound `Cc1oncc1C(=O)N1CCOCC1` came in with a melting point of 42 to 44 °C.

As to `CC(C)c1nsc(N=C(Br)N(C)C)c1C#N`, the melting point lay within 92 to 96 °C.

In turn, `COc1ccnc(C(C)S(=O)c2nc3cc(OC(F)(F)C(F)F)ccc3[nH]2)c1` (stereo not drawn) gave a melting point of 156 to 157 °C.

Take `CC(C)c1cccc(C(C)C)c1NC(=O)C(Cc1ccccc1)NC(=O)CCCCl` (stereo not drawn): the melting point lay within 212 to 215 °C.

For `Fc1ccc(-c2nc3ccc(N4CCN(C5CC5)CC4)nn3c2-c2ccnnc2)cc1`, the melting point lay within 206 to 209 °C.

Regarding `O=C1Nc2cccnc2N(C(=O)CN2CCN(CCO)CC2)c2ccccc21`, the melting point fell in the range of 197 to 200 °C.

In the case of `CC(=O)Nc1cnc2c(NC(=O)c3c(Cl)cccc3Cl)cccc2c1`, the melting point was 244 to 245 °C.

With `Cc1nc(NC(=O)c2cnn3c(C(F)(F)F)cc(-c4ccc(C(F)(F)F)c(Cl)c4)nc23)sc1S(=O)(=O)NC(C)(C)CO`, the melting point worked out at 274 °C.

In the case of `CCn1cc(C(=O)O)c(=O)c2cc(F)c(N3CCSC3)nc21`, the melting point was in the range of 268 to 270 °C.

`CCOc1ccc(C)cc1NC(=O)Nc1ccc(N2CCN(C(=O)OC(C)(C)C)CC2)cc1` showed a melting point of 105 to 107 °C.

`O=C(O)CCC(NC(=O)c1ccccc1)C(=O)NC(c1ccccc1)c1ccccc1` (stereo not drawn) returned a melting point of 128 °C.

`Cc1ncccc1[N+](=O)[O-]` came in with a melting point of 29 to 31 °C.

Compound `COc1cc(OC)c2c(C)c(CCN3CCN(c4ccccc4O)CC3)c(=O)oc2c1` yielded a melting point of 164 to 165 °C.

`Nc1ccc(C(=O)c2ccncc2)cc1` displayed a melting point of 152 °C.

The compound `COP(=O)(OC)[C@@H](O)[C@H](CC1CCCCC1)NC(=O)[C@H](CC(C)C)NC(=O)CCc1ccccc1` came in with a melting point of 157 °C.

For `CC(Cl)(Cl)C(NC(=O)c1ccc(Br)cc1)NC(=NC#N)Nc1ccc(Cl)nc1` (stereo not drawn), the melting point fell in the range of 215 to 216 °C.

For the compound `O=C(Nc1ccc(Cl)cn1)c1cc(Cl)ccc1NCC1CCN(C2CCCC2)CC1`, the melting point was 170 to 171 °C.

Take `O=C(O)c1ccccc1Sc1ccc([N+](=O)[O-])cc1[N+](=O)[O-]`: the melting point lay within 179 to 181 °C.

`CC(=O)NCCO[C@H]1COc2ccc3cnn(C[C@@H](C)O)c3c2C1` came in with a melting point of 165 to 166 °C.

Take `O=C(Nc1ccc2c(c1)C(=O)NC2=O)C(=O)N1CCC(Cc2ccc(F)cc2)CC1`: the melting point lay within 226 to 228 °C.

For the compound `CC(=O)NC(=O)OC[C@]1(C)S[C@@H]2[C@H](NC(=O)COc3ccccc3)C(=O)N2[C@H]1C(=O)OCc1ccc([N+](=O)[O-])cc1`, the melting point lay in the range of 83 to 85 °C.

Take `Cc1oc(-c2ccco2)nc1COc1ccc(CO)cc1Cl`: the melting point fell in the range of 143 to 144 °C.

Compound `CC(C)(C)CN(NC(=O)c1ccccc1)C(=O)c1ccccc1` registered a melting point of 237 to 239 °C.

As to `O=CN1CCN(C(=O)COc2cc(-c3ccccc3)nc3ccccc23)CC1`, the melting point turned out to be 170 °C.

Compound `Cc1ccc([N+](=O)[O-])cc1Nc1cc(-c2cccnc2)ccn1` came in with a melting point of 170 to 173 °C.

Compound `COc1ccc(C)nc1I` gave a melting point of 45 to 50 °C.

The compound `CCCc1c(OCCCOc2ccc(C(=O)CCC(=O)O)c(Cl)c2Cl)ccc(C(C)=O)c1O` displayed a melting point of 119 to 123 °C.

In the case of `COc1cccc2c1nc(C(F)F)n2-c1nc(N2CCOCC2)nc2c1ncn2-c1cccnc1`, the melting point was 206 to 209 °C.

`O=C(O)c1c[nH]cc2c(=O)n(-c3ccccc3)nc1-2` gave a melting point of 287 to 302 °C.

`O=C(O)C[C@H](NC(=O)/C=C/C(=O)c1ccccc1)C(=O)O` had a melting point of 154 to 156 °C.

`NS(=O)(=O)c1ccc(-c2c(-c3ccccc3)noc2CC(=O)O)cc1` gave a melting point of 61 °C.

`CC(=O)NNCC1CC2c3cccc4[nH]cc(c34)CC2N(C)C1` (stereo not drawn) displayed a melting point of 213 to 215 °C.

In turn, `O=S1(=O)NCC2(OCCO2)c2ccc3ccccc3c21` gave a melting point of 202 to 204 °C.

`CN(Cc1ccccc1)c1nc2c(cc1C#N)C(=O)CC(C)(C)C2` registered a melting point of 97 to 99 °C.

`CCCN1CCNC1=C[N+](=O)[O-]` yielded a melting point of 147 to 148 °C.

The compound `COc1ccc(-c2nc(Sc3ccc(Cl)cc3)n(C3CCCCO3)c2-c2ccc(OC)cc2)cc1` (stereo not drawn) registered a melting point of 202 to 204 °C.

Turning to `Cc1nccn1-c1nc(-c2ccc(Cl)cc2)c(CCC#N)o1`, the melting point is 163 to 164 °C.

`CCCCCCCCCCCCCCCCC(C(=O)OC)S(C)=O` (stereo not drawn) returned a melting point of 56 to 57 °C.

For the compound `O=C(O)C1CCC(O)CC1` (stereo not drawn), the melting point lay within 110 to 130 °C.

Regarding `Nc1nc(N)nc(-c2ccc(-c3ccccc3)s2)n1`, the melting point was greater than 250 °C.

`COc1ccc(S(=O)(=O)Nc2ccccc2N)cc1`: the melting point was 141 to 142 °C.

As to `O=C1CCC(N2Cc3cc(CNC(=O)Nc4ccc(F)cc4)ccc3C2=O)C(=O)N1` (stereo not drawn), the melting point was in the range of 262 to 264 °C.

Turning to `C/C(=C(\C#N)C(=S)/N=C/N(C)C)N1CCCN(c2ccc(C#N)cc2)CC1`, the melting point lay within 120 to 126 °C.

As to `CN(C)CC#CC1=CC[N+]([O-])=C(c2ccccc2)c2cc(Cl)ccc21`, the melting point fell in the range of 121 to 123 °C.

In the case of `Oc1ccc(-c2c3ccccc3cc3sc4ccccc4c23)cc1`, the melting point is 112 to 116 °C.

In turn, `CCCCCCCN(CCCCCSc1nc(-c2ccccc2)c(-c2ccccc2)[nH]1)C(=O)NCCC` yielded a melting point of 78 to 80 °C.

The compound `CN(C)n1c(NN)nc2ccccc2c1=O` returned a melting point of 125 to 127 °C.

For the compound `CC(C)(O)c1ccc(-c2cnc3c(n2)N(CCC2CCOCC2)CC(=O)N3)cc1`, the melting point lay in the range of 210 to 212 °C.

`COc1cc(C=CC=O)ccc1OC(C)=O` displayed a melting point of 83 to 86 °C.

With `O=C(O)CSc1c(C(=O)O)[nH]c2cc(Cl)cc(Cl)c12`, the melting point fell in the range of 152 to 153 °C.

As for `CN(C)CCOc1cccc(C=CC(=O)N2CCc3c([nH]c4ccccc34)C2c2ccc3c(c2)OCO3)c1` (stereo not drawn), the melting point was 76 to 78 °C.

For the compound `CC(C)(C)NCCCOc1ccccc1C(=O)c1cccc2[nH]ccc12`, the melting point turned out to be 130 °C.

Compound `Cc1[nH]c2c(ccc3sc4ccccc4c32)c1C=O` had a melting point of 192 to 194 °C.

In turn, `COc1c(C(C)(C)C)cc(COc2cccc(C=C3SC(=S)NC3=O)c2)cc1C(C)(C)C` yielded a melting point of 239 to 243 °C.

`COc1cc(Nc2nc3cccc(-c4cccc(C)c4)c3o2)cc(OC)c1OC` gave a melting point of 153 to 155 °C.

In turn, `CCCCc1ncc(/C=C(\Cc2ccccc2)C(=O)O)n1Cc1c(F)cccc1Cl` showed a melting point of 204 to 206 °C.

Compound `CC1CCCN1CCCN1CCN(CCN2CCCC2)C1=C(C#N)C#N` (stereo not drawn) displayed a melting point of 95 to 96 °C.

Consider `CC(C)(C)c1cccc(S(=O)(=O)n2c(CCCCC(=O)O)cc3cc(C(F)(F)F)ccc32)c1`, for which the melting point was found to be 135 °C.

Compound `O=C(Nc1cncc(Cl)n1)C1=C(O)c2ccccc2S(=O)(=O)N1` came in with a melting point of 234 to 235 °C.

For `OC1(c2ccc(Cl)cc2)c2cc(Cl)c(Cl)cc2CCC1Br` (stereo not drawn), the melting point lay within 103 to 104 °C.

Compound `COC(=O)NS(=O)(=O)c1ccc(NC(=O)COc2ccc(Cl)cc2C)cc1` returned a melting point of 184 to 185 °C.

`O=C(O)c1cc(NC(=O)C(CS)Cc2ccccc2)ccc1O` (stereo not drawn) yielded a melting point of 206 to 209 °C.

As to `O=C1Cc2c(-c3ccccc3)ccc(Cl)c2N1`, the melting point lay within 234 to 236 °C.

On to `N#Cc1ccc(C=NO)cc1`, for which the melting point lay within 174 to 176 °C.

Turning to `CCCN(CCC)c1c([N+](=O)[O-])cc(S(=O)(=O)N(C)SC)cc1[N+](=O)[O-]`, the melting point lay within 119 to 121 °C.

Turning to `COC(=O)CCc1nc(CCc2ccc(C(=O)OC)cc2)ccc1O`, the melting point lay in the range of 137 to 139 °C.

For the compound `O=C(CCN1CCN(c2cccc(Cl)c2Cl)CC1)N1CCc2ccccc21`, the melting point was 157 to 158 °C.

Consider `COc1cc(Nc2nccc(-c3cccc(Br)c3)n2)cc(OC)c1OC`, for which the melting point was 145 °C.

The compound `Cc1cc(Cn2c(-c3ccccc3)nc(Cl)c2CC(=O)O)ccc1O` had a melting point of 190 to 193 °C.

The compound `CNc1nc(C#N)c(C#N)nc1NC(C)(C)C` gave a melting point greater than 250 °C.

In turn, `N#Cc1cccc(NC(=O)c2cc(-c3ccc(F)cc3F)ccc2O)c1` showed a melting point of 229 to 230 °C.

As for `N#Cc1ccc2ccn3cccc3c(=O)c2c1`, the melting point fell in the range of 213 to 217 °C.
